In patent publication US20250163104A1, “MACROCYCLIC IMMUNOMODULATORS” (priority 2021, published 2025):
Where a SMILES comes first, the peptide text is derived from it. Bridges are numbered along the chain shown (N, C = ends). [ ]: non-standard residue; d: D form. The star is where a group is joined. Phe(4-COOH) = N[C@@H](Cc1ccc(C(=O)O)cc1)C(=O)O; Bip = N[C@@H](Cc1ccc(-c2ccccc2)cc1)C(=O)O; Phe(4-CN) = N#Cc1ccc(C[C@H](N)C(=O)O)cc1; Phe(3-F) = N[C@@H](Cc1cccc(F)c1)C(=O)O; Phe(3-Me) = Cc1cccc(C[C@H](N)C(=O)O)c1; Phe(2-F) = N[C@@H](Cc1ccccc1F)C(=O)O; Val(3-OH) = CC(C)(O)[C@H](N)C(=O)O; 4Pal = N[C@@H](Cc1ccncc1)C(=O)O; Cha = N[C@@H](CC1CCCCC1)C(=O)O; Carboxymethyl = O=C(O)C*; Nle = CCCC[C@H](N)C(=O)O; Orn = NCCC[C@H](N)C(=O)O; Dab = NCC[C@H](N)C(=O)O; Nva = CCC[C@H](N)C(=O)O; Dap = NC[C@H](N)C(=O)O; NHCH2CH2OMe = COCCN*; Propargyl = C#CC*

Each compound was assayed against T1, human PD-1 / PD-L1-Ig binding on Jurkat cell line over-expressing human PD-1 (Jurkat-PD-1) (Homo sapiens, UniProt Q15116) (assay: Jurkat-PD-1 Cell Binding High-Content Screening Assay (CBA)). Details: Jurkat-PD-1 cells, PE-labeled PD-L1-Ig 20 nM final; read-out: Jurkat HPD1_PDL1 IC50.
T1 construct: expressed in transfected cells; host or cells: Jurkat
T1 sequence (Q15116 25-288): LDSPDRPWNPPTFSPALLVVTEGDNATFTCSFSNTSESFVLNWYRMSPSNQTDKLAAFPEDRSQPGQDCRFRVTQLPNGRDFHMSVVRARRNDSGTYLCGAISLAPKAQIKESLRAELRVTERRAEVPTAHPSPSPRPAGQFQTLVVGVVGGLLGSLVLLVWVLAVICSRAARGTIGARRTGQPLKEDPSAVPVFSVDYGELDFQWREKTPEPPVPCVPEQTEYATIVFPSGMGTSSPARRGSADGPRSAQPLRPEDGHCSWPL
Type: cell-based
Procedure, shortened: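 Jurkat-hPD-1 cells in DMEM with 10% fetal calf serum receive test compound and are held at 37° C for 2 h. PE-labeled PD-L1-Ig is added at 20 nM final and left for 1 hour. Cells are then fixed and Hoechst-stained, and binding is measured by imaging.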

IC50 [nM]	SMILES
4.8	C#CCOc1ccc(C[C@@H]2NC(=O)[C@H](Cc3ccc(-c4ccccc4)cc3)NC(=O)[C@H](Cc3ccc(C(=O)O)cc3)NC(=O)[C@H](Cc3cccc(C)c3)NC(=O)[C@H](CC(=O)O)NC(=O)[C@H](Cc3ccc(C(=O)O)cc3)NC(=O)[C@H](CCC)NC(=O)CSC[C@@H](C(=O)N[C@@H](CCN)C(N)=O)NC(=O)[C@H](CCC(=O)O)NC(=O)[C@H](C(C)C)NC(=O)[C@H](CC3CCCCC3)NC(=O)[C@H](CCN)NC(=O)[C@@H](CC(C)C)NC(=O)[C@H](CCCN)NC2=O)cc1 [Compound 1831] ({CH2CO}-[Nva][Phe(4-COOH)]D[Phe(3-Me)][Phe(4-COOH)][Bip]Y(Propargyl)[Orn][dL][Dab][Cha]VEC[Dab]-NH2; thioether N-14)
9.5	Cc1cccc(C[C@@H]2NC(=O)[C@H](CC(=O)O)NC(=O)[C@H](Cc3ccc(OCC(=O)O)cc3)NC(=O)[C@H]([C@@H](C)O)NC(=O)CSC[C@@H](C(N)=O)NC(=O)[C@H](CCCN)NC(=O)[C@H](C(C)C)NC(=O)[C@H](CC3CCCCC3)NC(=O)[C@H](CCN)NC(=O)[C@@H](CC(C)C)NC(=O)[C@H](CCCN)NC(=O)[C@H](Cc3ccc(OCC(=O)O)cc3)NC(=O)[C@H](Cc3ccc(-c4ccccc4)cc3)NC(=O)[C@H](Cc3ccc(OCC(=O)O)cc3)NC2=O)c1 [Compound 1802] ({CH2CO}-TY(Carboxymethyl)D[Phe(3-Me)]Y(Carboxymethyl)[Bip]Y(Carboxymethyl)[Orn][dL][Dab][Cha]V[Orn]C-NH2; thioether N-14)
4.4	CCC[C@@H]1NC(=O)CSC[C@@H](C(=O)N[C@@H](CCN)C(=O)NCCOC)NC(=O)[C@H](CO)NC(=O)[C@H](C(C)(C)O)NC(=O)[C@H](CC2CCCCC2)NC(=O)[C@H](CCN)NC(=O)[C@@H](CC(C)C)NC(=O)[C@H](CCCN)NC(=O)[C@H](Cc2ccc(OCC(=O)O)cc2)NC(=O)[C@H](Cc2ccc(-c3ccccc3)cc2)NC(=O)[C@H](Cc2ccc(OCC(=O)O)cc2)NC(=O)[C@H](Cc2cccc(C)c2)NC(=O)[C@H](CC(=O)O)NC(=O)[C@H](Cc2ccc(OCC(=O)O)cc2)NC1=O [Compound 2074] ({CH2CO}-[Nva]Y(Carboxymethyl)D[Phe(3-Me)]Y(Carboxymethyl)[Bip]Y(Carboxymethyl)[Orn][dL][Dab][Cha][Val(3-OH)]SC[Dab]-NHCH2CH2OMe; thioether N-14)
14.3	CCCC[C@H]1NC(=O)[C@H](CCCN)NC(=O)[C@H]([C@@H](C)CC)NC(=O)[C@H](Cc2ccc(-c3ccccc3)cc2)NC(=O)[C@H](C(C)C)NC(=O)[C@H](Cc2c[nH]c3ccccc23)NC(=O)[C@H](CC(=O)O)NC(=O)[C@H](Cc2ccc(C(=O)O)cc2)NC(=O)[C@H](Cc2ccncc2)NC(=O)CSC[C@@H](C(=O)N[C@@H](C)C(N)=O)NC(=O)[C@H]([C@@H](C)O)NC(=O)[C@H](C(C)C)NC(=O)[C@H](CC2CCCCC2)NC(=O)[C@H](CCN)NC1=O [Compound 1705]
37.6	CC(C)C[C@H]1NC(=O)[C@H](CCCN)NC(=O)[C@H](CCC(=O)O)NC(=O)[C@H](Cc2ccc(-c3ccccc3)cc2)NC(=O)[C@H](C(C)C)NC(=O)[C@H](Cc2ccccc2F)NC(=O)[C@H](CC(=O)O)NC(=O)[C@H](Cc2ccc(C#N)cc2)NC(=O)[C@H](CC(N)=O)NC(=O)CSC[C@@H](C(=O)N[C@@H](C)C(N)=O)NC(=O)[C@H]([C@@H](C)O)NC(=O)[C@H](C(C)C)NC(=O)[C@H](CC2CCCCC2)NC(=O)[C@H](CCN)NC1=O [Compound 2212] ({CH2CO}-N[Phe(4-CN)]D[Phe(2-F)]V[Bip]E[Orn][dL][Dab][Cha]VTCA-NH2; thioether N-14)
17.2	Cc1cccc(C[C@@H]2NC(=O)[C@H](CC(=O)O)NC(=O)[C@H](Cc3ccc(OCC(=O)O)cc3)NC(=O)[C@H](Cc3ccc(OCC(=O)O)cc3)NC(=O)CSC[C@@H](C(=O)N[C@@H](C)C(N)=O)NC(=O)[C@H]([C@@H](C)O)NC(=O)[C@H](C(C)C)NC(=O)[C@H](CC3CCCCC3)NC(=O)[C@H](CCN)NC(=O)[C@@H](CC(C)C)NC(=O)[C@H](CCCN)NC(=O)[C@H](C(C)C)NC(=O)[C@H](Cc3ccc(-c4ccccc4)cc3)NC(=O)[C@H](C(C)C)NC2=O)c1 [Compound 1572]
7.5	Cc1cccc(C[C@@H]2NC(=O)[C@H](CC(=O)O)NC(=O)[C@H](Cc3ccc(C(=O)O)cc3)NC(=O)[C@H](Cc3ccncc3)NC(=O)CSC[C@@H](C(=O)N[C@@H](CCN)C(N)=O)NC(=O)[C@H](CCC(=O)O)NC(=O)[C@H](C(C)C)NC(=O)[C@H](CC3CCCCC3)NC(=O)[C@H](CCN)NC(=O)[C@@H](CC(C)C)NC(=O)[C@H](CCCN)NC(=O)[C@H](Cc3ccc(OCC(=O)O)cc3)NC(=O)[C@H](Cc3ccc(-c4ccccc4)cc3)NC(=O)[C@H](Cc3ccc(OCC(=O)O)cc3)NC2=O)c1 [Compound 2308] ({CH2CO}-[4Pal][Phe(4-COOH)]D[Phe(3-Me)]Y(Carboxymethyl)[Bip]Y(Carboxymethyl)[Orn][dL][Dab][Cha]VEC[Dab]-NH2; thioether N-14)
16.9	CC(C)C[C@H]1NC(=O)[C@H](CCCN)NC(=O)[C@H](C(C)C)NC(=O)[C@H](Cc2ccc(-c3ccccc3)cc2)NC(=O)[C@H](C(C)C)NC(=O)[C@H](Cc2c[nH]c3ccccc23)NC(=O)[C@H](CC(=O)O)NC(=O)[C@H](Cc2ccc(OCC(=O)O)cc2)NC(=O)[C@H](Cc2ccc(OCC(=O)O)cc2)NC(=O)CSC[C@@H](C(=O)N[C@@H](C)C(N)=O)NC(=O)[C@H]([C@@H](C)O)NC(=O)[C@H](C(C)C)NC(=O)[C@H](Cc2cccc(F)c2)NC(=O)[C@H](CCN)NC1=O [Compound 1674] ({CH2CO}-Y(Carboxymethyl)Y(Carboxymethyl)DWV[Bip]V[Orn][dL][Dab][Phe(3-F)]VTCA-NH2; thioether N-14)
8.2	CCCC[C@@H]1NC(=O)[C@H](CCN)NC(=O)[C@@H](CC(C)C)NC(=O)[C@H](CCCN)NC(=O)[C@H](C(C)C)NC(=O)[C@H](Cc2ccc(-c3ccccc3)cc2)NC(=O)[C@H](CC(C)C)NC(=O)[C@H](Cc2c[nH]c3ccccc23)NC(=O)[C@H](CC(=O)O)NC(=O)[C@H](Cc2ccc(OCC(=O)O)cc2)NC(=O)[C@H](CN)NC(=O)CSC[C@@H](C(=O)NCC(N)=O)NC(=O)[C@H](CO)NC(=O)[C@H](C(C)C)NC1=O [Compound 1408] ({CH2CO}-[Dap]Y(Carboxymethyl)DWL[Bip]V[Orn][dL][Dab][Nle]VSCG-NH2; thioether N-14)
7.4	CC(C)C[C@@H]1NC(=O)[C@H](Cc2c[nH]c3ccccc23)NC(=O)[C@H](CC(=O)O)NC(=O)[C@H](Cc2ccc(C(=O)O)cc2)NC(=O)[C@H](Cc2ccc(OCC(=O)O)cc2)NC(=O)CSC[C@@H](C(=O)NCC(N)=O)NC(=O)[C@H](CO)NC(=O)[C@H](C(C)C)NC(=O)[C@H](CC(C)C)NC(=O)[C@H](CCN)NC(=O)[C@@H](CC(C)C)NC(=O)[C@H](CCCN)NC(=O)[C@H](C(C)C)NC(=O)[C@H](Cc2ccc(-c3ccccc3)cc2)NC1=O [Compound 1254] ({CH2CO}-Y(Carboxymethyl)[Phe(4-COOH)]DWL[Bip]V[Orn][dL][Dab]LVSCG-NH2; thioether N-14)
26.9	CC(C)[C@@H]1NC(=O)[C@H](Cc2c[nH]c3ccccc23)NC(=O)[C@H](CC(=O)O)NC(=O)[C@H](Cc2ccc(OCC(=O)O)cc2)NC(=O)[C@H](CN)NC(=O)CSC[C@@H](C(=O)N[C@@H](C)C(N)=O)NC(=O)[C@H]([C@@H](C)O)NC(=O)[C@H](C(C)C)NC(=O)[C@H](CC2CCCCC2)NC(=O)[C@H](CCN)NC(=O)[C@@H](Cc2ccc(O)cc2)NC(=O)[C@H](CCCN)NC(=O)[C@H](CCC(=O)O)NC(=O)[C@H](Cc2ccc(-c3ccccc3)cc2)NC1=O [Compound 1448] ({CH2CO}-[Dap]Y(Carboxymethyl)DWV[Bip]E[Orn][dY][Dab][Cha]VTCA-NH2; thioether N-14)
